Assay results as given in US20230278972A1, “SUBSTITUTED HALOALKYL SULFONANILIDE HERBICIDES” (FMC Corporation, priority 2020, published 2023).

Key:
Format in all cases: in vivo
[1] = test system: blackgrass (Alopecurus myosuroides); experiment: Test A postemergence, blackgrass; conditions: Postemergence, 0 to 100 scale (0 no effect, 100 complete control); for Blackgrass plant response rating: visual injury vs untreated controls after approx. 10 days
Summary of the method: (§1)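 Compounds in non-phytotoxic solvent with surfactant. Soil: loam/sand. Preemergence via directed soil spray after seeding; postemergence on seedlings 2–10 cm, one- to two-leaf.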

[2] = test system: pigweed (Amaranthus retroflexus); experiment: Test A postemergence, pigweed; conditions: Postemergence, 0 to 100 scale (0 no effect, 100 complete control); for Pigweed plant response rating: visual injury vs untreated controls after approx. 10 days
Summary of the method: as §1

[3] = test system: ragweed (common ragweed, Ambrosia artemisiifolia); experiment: Test A preemergence, ragweed; conditions: Preemergence; for Ragweed plant response rating: 125 g ai/ha, visual injury on 0 to 100 scale (0 no effect, 100 complete control), approximately 10 days; for Plant response rating, Ragweed: 500 g ai/ha, 0 to 100 scale (0 no effect, 100 complete control)
Summary of the method: as §1

[4] = test system: wheat (Triticum aestivum); experiment: Test A postemergence, wheat; conditions: Postemergence, 0 to 100 scale (0 no effect, 100 complete control); for Wheat plant response rating: visual injury vs untreated controls after approx. 10 days
Summary of the method: (§2)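 Test chemicals, formulated in a non-phytotoxic solvent mixture with surfactant, were sprayed postemergence on plants 2 to 10 cm tall at the one- to two-leaf stage. Preemergence treatment was a directed soil spray onto freshly seeded pots. Both used a loam soil and sand blend.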

[5] = test system: Foxtail, Giant (giant foxtail, Setaria faberi); experiment: Test A preemergence, Foxtail, Giant; conditions: Preemergence; for Foxtail, Giant plant response rating: 125 g ai/ha, visual injury on 0 to 100 scale (0 no effect, 100 complete control), approximately 10 days; for Plant response rating, Foxtail, Giant: 500 g ai/ha, 0 to 100 scale (0 no effect, 100 complete control)
Summary of the method: as §1

[6] = test system: ragweed (common ragweed, Ambrosia artemisiifolia); experiment: Test A postemergence, ragweed; conditions: Postemergence, 0 to 100 scale (0 no effect, 100 complete control); for Ragweed plant response rating: visual injury vs untreated controls after approx. 10 days
Summary of the method: as §1

[7] = test system: Ryegrass, Italian (Italian ryegrass, Lolium multiflorum); experiment: Test A postemergence, Ryegrass, Italian; conditions: Postemergence, 0 to 100 scale (0 no effect, 100 complete control); for Ryegrass, Italian plant response rating: visual injury vs untreated controls after approx. 10 days
Summary of the method: as §1

[8] = test system: Foxtail, Giant (giant foxtail, Setaria faberi); experiment: Test A postemergence, Foxtail, Giant; conditions: Postemergence, 0 to 100 scale (0 no effect, 100 complete control); for Foxtail, Giant plant response rating: visual injury vs untreated controls after approx. 10 days
Summary of the method: as §1

[9] = test system: galium (catchweed bedstraw, Galium aparine); experiment: Test A postemergence, galium; conditions: Postemergence, 0 to 100 scale (0 no effect, 100 complete control); for Galium plant response rating: visual injury vs untreated controls after approx. 10 days
Summary of the method: as §2

[10] = test system: barnyardgrass (Echinochloa crus-galli); experiment: Test A postemergence, barnyardgrass; conditions: Postemergence, 0 to 100 scale (0 no effect, 100 complete control); for Barnyardgrass plant response rating: visual injury vs untreated controls after approx. 10 days
Summary of the method: as §2

kochia (Bassia scoparia) [11] = experiment: Test A postemergence, kochia; conditions: Postemergence, 0 to 100 scale (0 no effect, 100 complete control); for Kochia plant response rating: visual injury vs untreated controls after approx. 10 days
Summary of the method: as §1

[12] = test system: Ryegrass, Italian (Italian ryegrass, Lolium multiflorum); experiment: Test A preemergence, Ryegrass, Italian; conditions: Preemergence; for Ryegrass, Italian plant response rating: 125 g ai/ha, visual injury on 0 to 100 scale (0 no effect, 100 complete control), approximately 10 days; for Plant response rating, Ryegrass, Italian: 500 g ai/ha, 0 to 100 scale (0 no effect, 100 complete control)
Summary of the method: as §1

[13] = test system: barnyardgrass (Echinochloa crus-galli); experiment: Test A preemergence, barnyardgrass; conditions: Preemergence; for Barnyardgrass plant response rating: 125 g ai/ha, visual injury on 0 to 100 scale (0 no effect, 100 complete control), approximately 10 days; for Plant response rating, Barnyardgrass: 500 g ai/ha, 0 to 100 scale (0 no effect, 100 complete control)
Summary of the method: as §1

[14] = test system: pigweed (Amaranthus retroflexus); experiment: Test A preemergence, pigweed; conditions: for Pigweed plant response rating: 125 g ai/ha, visual injury on 0 to 100 scale (0 no effect, 100 complete control), approximately 10 days; for Plant response rating, Pigweed: 500 g ai/ha, 0 to 100 scale (0 no effect, 100 complete control)
Summary of the method: as §2

corn (Zea mays) = experiment: Test A postemergence, corn; conditions: Postemergence, 0 to 100 scale (0 no effect, 100 complete control); for Corn plant response rating: visual injury vs untreated controls after approx. 10 days
Summary of the method: as §1

kochia (Bassia scoparia) [15] = experiment: Test A preemergence, kochia; conditions: Preemergence; for Kochia plant response rating: 125 g ai/ha, visual injury on 0 to 100 scale (0 no effect, 100 complete control), approximately 10 days; for Plant response rating, Kochia: 500 g ai/ha, 0 to 100 scale (0 no effect, 100 complete control)
Summary of the method: as §1

[16] = 125 g ai/ha, visual injury approx. 10 days
[17] = 500 g ai/ha, visual injury, approx. 10 days

Row | Compound | Plant response rating, Blackgrass [1, 16] | Plant response rating, Pigweed [2, 16] | Ragweed plant response rating [3] | Plant response rating, Ragweed [3] | Plant response rating, Wheat [4, 16] | Foxtail, Giant plant response rating [5] | Plant response rating, Foxtail, Giant [5] | Plant response rating, Ragweed [6, 16] | Plant response rating, Ryegrass, Italian [7, 16] | Plant response rating, Foxtail, Giant [8, 16] | Plant response rating, Galium [9, 16] | Plant response rating, Barnyardgrass [10, 16] | Ryegrass, Italian plant response rating [12] | Plant response rating, Ryegrass, Italian [12] | Barnyardgrass plant response rating [13] | Plant response rating, Barnyardgrass [13] | Pigweed plant response rating [14] | Plant response rating, Pigweed [14] | Kochia plant response rating (kochia (Bassia scoparia) [15]) | Plant response rating, Kochia (kochia (Bassia scoparia) [15]) | also measured
1 | COc1cnn(C)c(=O)c1-c1cc(NS(=O)(=O)C(F)(F)F)c(C)cc1C [Compound 65] | 0 | 0 | 0 | 0 | 0 | 80 | 100 | 0 | 0 | 0 | 0 | 0 | 30 | 60 | 0 | 90 | 0 | 30 | 0 | 60 | Blackgrass plant response rating ([1]; 500 g ai/ha): 0; Pigweed plant response rating ([2]; 500 g ai/ha): 0; Wheat plant response rating ([4]; 500 g ai/ha): 50; Ragweed plant response rating ([6]; 500 g ai/ha): 0; Ryegrass, Italian plant response rating ([7]; 500 g ai/ha): 0; Foxtail, Giant plant response rating ([8]; 500 g ai/ha): 40; Galium plant response rating ([9]; 500 g ai/ha): 30; Barnyardgrass plant response rating ([10]; 500 g ai/ha): 70; Plant response rating, Kochia (kochia (Bassia scoparia) [11]; [16]): 0; Kochia plant response rating (kochia (Bassia scoparia) [11]; 500 g ai/ha): 0; Plant response rating, Corn (corn (Zea mays); [16]): 0; Corn plant response rating (corn (Zea mays); 500 g ai/ha): 0
2 | Cc1cc(C)c(N(S(=O)(=O)C(F)(F)F)S(=O)(=O)C(F)(F)F)cc1C1=NOC2(CCCCCC2)C1 [Compound 158] |  |  | 30 | 40 |  | 90 | 100 |  |  |  |  |  | 30 | 100 | 30 | 100 | 50 | 100 | 70 | 80 | Plant response rating, Blackgrass ([1]; 125 g ai/ha): 20; Blackgrass plant response rating ([1]; 500 g ai/ha): 0; Plant response rating, Pigweed ([2]; 125 g ai/ha): 30; Pigweed plant response rating ([2]; 500 g ai/ha): 80; Plant response rating, Wheat ([4]; 125 g ai/ha): 0; Wheat plant response rating ([4]; 500 g ai/ha): 0; Plant response rating, Ragweed ([6]; 125 g ai/ha): 10; Ragweed plant response rating ([6]; 500 g ai/ha): 20; Plant response rating, Ryegrass, Italian ([7]; 125 g ai/ha): 0; Ryegrass, Italian plant response rating ([7]; 500 g ai/ha): 0; Plant response rating, Foxtail, Giant ([8]; 125 g ai/ha): 0; Foxtail, Giant plant response rating ([8]; 500 g ai/ha): 20; Plant response rating, Galium ([9]; 125 g ai/ha): 70; Galium plant response rating ([9]; 500 g ai/ha): 90; Plant response rating, Barnyardgrass ([10]; 125 g ai/ha): 0; Barnyardgrass plant response rating ([10]; 500 g ai/ha): 20; Plant response rating, Kochia (kochia (Bassia scoparia) [11]; 125 g ai/ha): 20; Kochia plant response rating (kochia (Bassia scoparia) [11]; 500 g ai/ha): 30; Plant response rating, Corn (corn (Zea mays); 125 g ai/ha): 0; Corn plant response rating (corn (Zea mays); 500 g ai/ha): 20
3 | CCn1c(=O)c(-c2cc(NS(=O)(=O)C(F)(F)F)c(C)cc2C)cn(C)c1=O [Compound 37] | 80 | 50 | 40 | 80 | 80 | 100 | 100 | 30 | 90 | 90 | 90 | 90 | 100 | 100 | 90 | 90 | 50 | 90 | 80 | 90 | Plant response rating, Blackgrass [1, 17]: 90; Plant response rating, Pigweed [2, 17]: 50; Plant response rating, Wheat [4, 17]: 80; Plant response rating, Ragweed [6, 17]: 70; Plant response rating, Ryegrass, Italian [7, 17]: 90; Plant response rating, Foxtail, Giant [8, 17]: 90; Plant response rating, Galium [9, 17]: 100; Plant response rating, Barnyardgrass [10, 17]: 90; Plant response rating, Kochia (kochia (Bassia scoparia) [11]; [16]): 60; Plant response rating, Kochia (kochia (Bassia scoparia) [11]; [17]): 70; Plant response rating, Corn (corn (Zea mays); [16]): 20; Plant response rating, Corn (corn (Zea mays); [17]): 80
4 | Cc1cc(Cl)c(N(S(=O)(=O)C(F)(F)F)S(=O)(=O)C(F)(F)F)cc1-c1cn(C)c(=O)n(C)c1=O [Compound 38] | 80 | 70 | 70 | 90 | 70 | 100 | 100 | 80 | 60 | 90 | 80 | 60 | 100 | 100 | 90 | 100 | 40 | 80 | 80 | 90 | Plant response rating, Blackgrass [1, 17]: 90; Plant response rating, Pigweed [2, 17]: 90; Plant response rating, Wheat [4, 17]: 70; Plant response rating, Ragweed [6, 17]: 90; Plant response rating, Ryegrass, Italian [7, 17]: 80; Plant response rating, Foxtail, Giant [8, 17]: 90; Plant response rating, Galium [9, 17]: 90; Plant response rating, Barnyardgrass [10, 17]: 80; Plant response rating, Kochia (kochia (Bassia scoparia) [11]; [16]): 60; Plant response rating, Kochia (kochia (Bassia scoparia) [11]; [17]): 70; Plant response rating, Corn (corn (Zea mays); [16]): 20; Plant response rating, Corn (corn (Zea mays); [17]): 70
